Experimental data as given in patent US20250230193A1, “CYCLIC COMPOUND HAVING SELECTIVE KRAS INHIBITORY EFFECT ON HRAS AND NRAS” (CHUGAI SEIYAKU KABUSHIKI KAISHA, priority 2022, published 2025).
*1 amine or outer side, *2 acyl side, *3 side chain or, on linkers, in order; H or OH if unused. Where a SMILES comes first, the peptide text is derived from it. Bridges are numbered along the chain shown (N, C = ends). [ ]: non-standard residue; d: D form. The star is where a group is joined. X24 = O=C([C@H](Cc1ccc(C(F)(F)F)cc1)N(CCC(F)(F)F)[*:1])[*:2]; X21 = O=C([C@H](Cc1ccc(C(F)(F)F)cc1)N(CC1CCCC1)[*:1])[*:2]; X36 = CC(C)CCN([C@@H](Cc1ccc(C(F)(F)F)cc1)C(=O)[*:2])[*:1]; hPhe(3-Cl-4-CF3) = N[C@@H](CCc1ccc(C(F)(F)F)c(Cl)c1)C(=O)O; X37 = O=C([C@H](Cc1ccc(C(F)(F)F)cc1)N(CC1CCC1)[*:1])[*:2]; X18 = C=CCCN([C@@H](Cc1ccc(C(F)(F)F)cc1)C(=O)[*:2])[*:1]; X42 = COCCCN([C@@H](Cc1ccc(C(F)(F)F)cc1)C(=O)[*:2])[*:1]; X11 = C=CCN([C@@H](Cc1ccc(C(F)(F)F)cc1)C(=O)[*:2])[*:1]; X28 = C#CCN([C@@H](Cc1ccc(C(F)(F)F)cc1)C(=O)[*:2])[*:1]; X32 = COCCN([C@@H](Cc1ccc(C(F)(F)F)cc1)C(=O)[*:2])[*:1]; X40 = CCCN([C@@H](Cc1ccc(OC)cc1)C(=O)[*:2])[*:1]; X50 = C=CCN([C@@H](Cc1ccc(C)cc1)C(=O)[*:2])[*:1]; NPrPhe(4-Me) = CCCN[C@@H](Cc1ccc(C)cc1)C(=O)O; NMeGly(cPent) = CN[C@H](C(=O)O)C1CCCC1; Aze(3S-Me) = C[C@H]1CN[C@@H]1C(=O)O; NMeAllylGly = C=CC[C@H](NC)C(=O)O; NMeD = CN[C@@H](CC(=O)O)C(=O)O; NMeL = CN[C@@H](CC(C)C)C(=O)O; Morpholide = C1CN(*)CCO1; NMeA = CN[C@@H](C)C(=O)O; Ac5c = NC1(C(=O)O)CCCC1; Aze = O=C(O)[C@@H]1CCN1; Sar = CNCC(=O)O

How the values were obtained:
[1] = target: GDP-bound NRAS wild-type protein (Homo sapiens, UniProt P01111); assay: Binding to NRAS by surface plasmon resonance (SPR), Single Cycle Kinetics; details: KD ratio NRAS/KRAS, SPR
[2] = target: GDP-bound HRAS wild-type protein (Homo sapiens, UniProt P01112); assay: Binding to HRAS by surface plasmon resonance (SPR), Single Cycle Kinetics; details: KD ratio HRAS/KRAS, SPR
Chain of GDP-bound HRAS wild-type protein (P01112 whole entry): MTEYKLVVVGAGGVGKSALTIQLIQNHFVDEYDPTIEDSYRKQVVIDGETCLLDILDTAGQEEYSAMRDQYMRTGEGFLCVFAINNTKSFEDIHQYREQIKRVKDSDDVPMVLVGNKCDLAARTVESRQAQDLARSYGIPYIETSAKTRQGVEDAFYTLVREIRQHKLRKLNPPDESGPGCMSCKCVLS

Chain of GDP-bound NRAS wild-type protein (P01111 whole entry): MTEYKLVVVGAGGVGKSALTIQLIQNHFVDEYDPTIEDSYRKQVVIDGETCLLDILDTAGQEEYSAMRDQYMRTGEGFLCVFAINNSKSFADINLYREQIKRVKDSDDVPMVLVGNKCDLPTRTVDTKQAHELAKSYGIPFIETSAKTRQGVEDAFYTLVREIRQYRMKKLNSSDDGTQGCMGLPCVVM

Row | SMILES | NRAS/KRAS (ratio of KD for GDP-bound NRAS wild-type to KD for KRAS) [1] | HRAS/KRAS (ratio of KD for GDP-bound HRAS wild-type to KD for KRAS) [2]
1 | CC[C@H](C)[C@@H]1NC(=O)[C@H](CC(C)C)N(C)C(=O)C[C@@H](C(=O)N2CCOCC2)N(C)C(=O)[C@H](C2CCCC2)N(C)C(=O)C2(CCCC2)NC(=O)[C@@H]2CCCN2C(=O)[C@H](CCc2ccc(C(F)(F)F)c(Cl)c2)NC(=O)CN(C)C(=O)[C@H](Cc2ccc(C(F)(F)F)cc2)N(CC2CCC2)C(=O)CN(C)C(=O)CN(C)C1=O [PP0123] ([NMeL]I[Sar][Sar][X37][Sar][hPhe(3-Cl-4-CF3)]P[Ac5c][NMeGly(cPent)][NMeD]-Morpholide; lactam N-11) | B (a compound having 3 or more and less than 10 is denoted as B) | C (A compound having a KD ratio of 0.1 or more and less than 3 is denoted as C)
2 | CC[C@H](C)[C@@H]1NC(=O)[C@H](CC(C)C)N(C)C(=O)C[C@@H](C(=O)N2CCOCC2)N(C)C(=O)[C@H](C2CCCC2)N(C)C(=O)C2(CCCC2)NC(=O)[C@@H]2CCCN2C(=O)[C@H](CCc2ccc(C(F)(F)F)c(Cl)c2)NC(=O)CN(C)C(=O)[C@H](Cc2ccc(C(F)(F)F)cc2)N(CC2CCCC2)C(=O)CN(C)C(=O)CN(C)C1=O [PP0124] ([NMeL]I[Sar][Sar][X21][Sar][hPhe(3-Cl-4-CF3)]P[Ac5c][NMeGly(cPent)][NMeD]-Morpholide; lactam N-11) | C (A compound having a KD ratio of 0.1 or more and less than 3 is denoted as C) | C (A compound having a KD ratio of 0.1 or more and less than 3 is denoted as C)
3 | CC[C@H](C)[C@@H]1NC(=O)[C@H](CC(C)C)N(C)C(=O)C[C@@H](C(=O)N2CCOCC2)N(C)C(=O)[C@H](C2CCCC2)N(C)C(=O)C2(CCCC2)NC(=O)[C@@H]2CCCN2C(=O)[C@H](CCc2ccc(C(F)(F)F)c(Cl)c2)NC(=O)CN(C)C(=O)[C@H](Cc2ccc(C(F)(F)F)cc2)N(CCC(C)C)C(=O)CN(C)C(=O)CN(C)C1=O [PP0126] ([NMeL]I[Sar][Sar][X36][Sar][hPhe(3-Cl-4-CF3)]P[Ac5c][NMeGly(cPent)][NMeD]-Morpholide; lactam N-11) | C (A compound having a KD ratio of 0.1 or more and less than 3 is denoted as C) | C (A compound having a KD ratio of 0.1 or more and less than 3 is denoted as C)
4 | C=CCN1C(=O)CN(C)C(=O)CN(C)C(=O)[C@H]([C@@H](C)CC)NC(=O)[C@H](CC(C)C)N(C)C(=O)C[C@@H](C(=O)N2CCOCC2)N(C)C(=O)[C@H](C2CCCC2)N(C)C(=O)C2(CCCC2)NC(=O)[C@@H]2CCCN2C(=O)[C@H](CCc2ccc(C(F)(F)F)c(Cl)c2)NC(=O)CN(C)C(=O)[C@@H]1Cc1ccc(C(F)(F)F)cc1 [PP0128] ([NMeL]I[Sar][Sar][X11][Sar][hPhe(3-Cl-4-CF3)]P[Ac5c][NMeGly(cPent)][NMeD]-Morpholide; lactam N-11) | C (A compound having a KD ratio of 0.1 or more and less than 3 is denoted as C) | C (A compound having a KD ratio of 0.1 or more and less than 3 is denoted as C)
5 | C=CCCN1C(=O)CN(C)C(=O)CN(C)C(=O)[C@H]([C@@H](C)CC)NC(=O)[C@H](CC(C)C)N(C)C(=O)C[C@@H](C(=O)N2CCOCC2)N(C)C(=O)[C@H](C2CCCC2)N(C)C(=O)C2(CCCC2)NC(=O)[C@@H]2CCCN2C(=O)[C@H](CCc2ccc(C(F)(F)F)c(Cl)c2)NC(=O)CN(C)C(=O)[C@@H]1Cc1ccc(C(F)(F)F)cc1 [PP0129] ([NMeL]I[Sar][Sar][X18][Sar][hPhe(3-Cl-4-CF3)]P[Ac5c][NMeGly(cPent)][NMeD]-Morpholide; lactam N-11) | B (a compound having 3 or more and less than 10 is denoted as B) | C (A compound having a KD ratio of 0.1 or more and less than 3 is denoted as C)
6 | C#CCN1C(=O)CN(C)C(=O)CN(C)C(=O)[C@H]([C@@H](C)CC)NC(=O)[C@H](CC(C)C)N(C)C(=O)C[C@@H](C(=O)N2CCOCC2)N(C)C(=O)[C@H](C2CCCC2)N(C)C(=O)C2(CCCC2)NC(=O)[C@@H]2CCCN2C(=O)[C@H](CCc2ccc(C(F)(F)F)c(Cl)c2)NC(=O)CN(C)C(=O)[C@@H]1Cc1ccc(C(F)(F)F)cc1 [PP0130] ([NMeL]I[Sar][Sar][X28][Sar][hPhe(3-Cl-4-CF3)]P[Ac5c][NMeGly(cPent)][NMeD]-Morpholide; lactam N-11) | C (A compound having a KD ratio of 0.1 or more and less than 3 is denoted as C) | C (A compound having a KD ratio of 0.1 or more and less than 3 is denoted as C)
7 | CC[C@H](C)[C@@H]1NC(=O)[C@H](CC(C)C)N(C)C(=O)C[C@@H](C(=O)N2CCOCC2)N(C)C(=O)[C@H](C2CCCC2)N(C)C(=O)C2(CCCC2)NC(=O)[C@@H]2CCCN2C(=O)[C@H](CCc2ccc(C(F)(F)F)c(Cl)c2)NC(=O)CN(C)C(=O)[C@H](Cc2ccc(C(F)(F)F)cc2)N(CCC(F)(F)F)C(=O)CN(C)C(=O)CN(C)C1=O [PP0131] ([NMeL]I[Sar][Sar][X24][Sar][hPhe(3-Cl-4-CF3)]P[Ac5c][NMeGly(cPent)][NMeD]-Morpholide; lactam N-11) | B (a compound having 3 or more and less than 10 is denoted as B) | C (A compound having a KD ratio of 0.1 or more and less than 3 is denoted as C)
8 | CC[C@H](C)[C@@H]1NC(=O)[C@H](CC(C)C)N(C)C(=O)C[C@@H](C(=O)N2CCOCC2)N(C)C(=O)[C@H](C2CCCC2)N(C)C(=O)C2(CCCC2)NC(=O)[C@@H]2CCCN2C(=O)[C@H](CCc2ccc(C(F)(F)F)c(Cl)c2)NC(=O)CN(C)C(=O)[C@H](Cc2ccc(C(F)(F)F)cc2)N(CCOC)C(=O)CN(C)C(=O)CN(C)C1=O [PP0132] ([NMeL]I[Sar][Sar][X32][Sar][hPhe(3-Cl-4-CF3)]P[Ac5c][NMeGly(cPent)][NMeD]-Morpholide; lactam N-11) | C (A compound having a KD ratio of 0.1 or more and less than 3 is denoted as C) | C (A compound having a KD ratio of 0.1 or more and less than 3 is denoted as C)
9 | CC[C@H](C)[C@@H]1NC(=O)[C@H](CC(C)C)N(C)C(=O)C[C@@H](C(=O)N2CCOCC2)N(C)C(=O)[C@H](C2CCCC2)N(C)C(=O)C2(CCCC2)NC(=O)[C@@H]2CCCN2C(=O)[C@H](CCc2ccc(C(F)(F)F)c(Cl)c2)NC(=O)CN(C)C(=O)[C@H](Cc2ccc(C(F)(F)F)cc2)N(CCCOC)C(=O)CN(C)C(=O)CN(C)C1=O [PP0133] ([NMeL]I[Sar][Sar][X42][Sar][hPhe(3-Cl-4-CF3)]P[Ac5c][NMeGly(cPent)][NMeD]-Morpholide; lactam N-11) | B (a compound having 3 or more and less than 10 is denoted as B) | C (A compound having a KD ratio of 0.1 or more and less than 3 is denoted as C)
10 | CCCN1C(=O)[C@@H]2CCN2C(=O)[C@H](C)N(C)C(=O)[C@H]([C@@H](C)CC)NC(=O)[C@H](CC(C)C)N(C)C(=O)C[C@@H](C(=O)N2CCOCC2)N(C)C(=O)[C@H](C2CCCC2)N(C)C(=O)C2(CCCC2)NC(=O)[C@@H]2CCCN2C(=O)[C@H](CCc2ccc(C(F)(F)F)c(Cl)c2)NC(=O)CN(C)C(=O)[C@@H]1Cc1ccc(OC)cc1 [PP0134] ([NMeL]I[NMeA][Aze][X40][Sar][hPhe(3-Cl-4-CF3)]P[Ac5c][NMeGly(cPent)][NMeD]-Morpholide; lactam N-11) | C (A compound having a KD ratio of 0.1 or more and less than 3 is denoted as C) | B (a compound having 3 or more and less than 10 is denoted as B)
11 | CCCN1C(=O)CN(C)C(=O)CN(C)C(=O)[C@H]([C@@H](C)CC)NC(=O)[C@H](CC(C)C)N(C)C(=O)C[C@@H](C(=O)N2CCOCC2)N(C)C(=O)[C@H](C2CCCC2)N(C)C(=O)C2(CCCC2)NC(=O)[C@@H]2CCCN2C(=O)[C@H](CCc2ccc(C(F)(F)F)c(Cl)c2)NC(=O)CN(C)C(=O)[C@@H]1Cc1ccc(OC)cc1 [PP0135] ([NMeL]I[Sar][Sar][X40][Sar][hPhe(3-Cl-4-CF3)]P[Ac5c][NMeGly(cPent)][NMeD]-Morpholide; lactam N-11) | B (a compound having 3 or more and less than 10 is denoted as B) | C (A compound having a KD ratio of 0.1 or more and less than 3 is denoted as C)
12 | CCCN1C(=O)[C@@H]2[C@@H](C)CN2C(=O)[C@H](C)N(C)C(=O)[C@H]([C@@H](C)CC)NC(=O)[C@H](CC(C)C)N(C)C(=O)C[C@@H](C(=O)N2CCOCC2)N(C)C(=O)[C@H](C2CCCC2)N(C)C(=O)C2(CCCC2)NC(=O)[C@@H]2CCCN2C(=O)[C@H](CCc2ccc(C(F)(F)F)c(Cl)c2)NC(=O)CN(C)C(=O)[C@@H]1Cc1ccc(C)cc1 [PP0138] ([NMeL]I[NMeA][Aze(3S-Me)][NPrPhe(4-Me)][Sar][hPhe(3-Cl-4-CF3)]P[Ac5c][NMeGly(cPent)][NMeD]-Morpholide; lactam N-11) | C (A compound having a KD ratio of 0.1 or more and less than 3 is denoted as C) | C (A compound having a KD ratio of 0.1 or more and less than 3 is denoted as C)
13 | C=CC[C@H]1C(=O)N(CC=C)[C@@H](Cc2ccc(C)cc2)C(=O)N(C)CC(=O)N[C@@H](CCc2ccc(C(F)(F)F)c(Cl)c2)C(=O)N2CCC[C@H]2C(=O)NC2(CCCC2)C(=O)N(C)[C@@H](C2CCCC2)C(=O)N(C)[C@H](C(=O)N2CCOCC2)CC(=O)N(C)[C@@H](CC(C)C)C(=O)N[C@@H]([C@@H](C)CC)C(=O)N(C)CC(=O)N1C [PP0139] ([NMeL]I[Sar][NMeAllylGly][X50][Sar][hPhe(3-Cl-4-CF3)]P[Ac5c][NMeGly(cPent)][NMeD]-Morpholide; lactam N-11) | C (A compound having a KD ratio of 0.1 or more and less than 3 is denoted as C) | C (A compound having a KD ratio of 0.1 or more and less than 3 is denoted as C)
